Measured values published in US20150218213A1, “INHIBITORS OF ALPHA6 INTEGRIN/E-CADHERIN COMPLEX” (Università degli Studi di Torino, priority 2012, published 2015).

Assays:
β4 integrin subunit = experiment: Affinity purification of liver metastasis lysates on column-immobilized peptide, ELISA and phage binding of fractions; settings: lysates of human liver metastases, in comparison with the controls; FIG. 8
Experimental: (FIG. 8A, FIG. 8B) Isolation of […]- (SEQ ID NO: 14) targeted integrin partners. To identify the molecular partner of α6 integrin in the peptide-targeted complex, synthetic […] (SEQ ID NO. 14) was immobilized on column-packed diaminodipropylamine-agarose and successively loaded with 30 mg of total protein from 7 pooled liver metastases secondary to CRCs. Protein fractions were collected after sequential incubation with high salt buffer (for the elution of unspecific proteins), CARAC-peptide (SEQ ID NO. 43) (as a negative control) and […]-peptide (SEQ ID NO. 14) (target elution). Protein amounts in collected fractions were followed by reading their OD at 280 nm (FIG. 8A). […] Control (salt, control peptide) and targeted ([…]—1, —2, and —6) (SEQ ID NO. 14) protein fractions (500 ng each) were evaluated for the presence of specific integrin subunits by an ELISA assay (FIG. 8D).
For the characterization of proteins targeted by […] […] Protein amounts in collected fractions were followed by reading their OD at 280 nm, and selected fractions were concentrated by the use of Microcon centrifugal filter devices with cut-off 10,000 (Millipore) to remove residual synthetic peptides. Proteins were quantified with the Coomassie (Bradford) Protein Assay Kit (Pierce), and 500 ng of each sample was evaluated for the presence of specific integrin subunits with a standard ELISA assay. […]

[1] = tested on: NCI-H630 cells in which ITGA6, CDH1 or both mRNAs were silenced; experiment: Cell adhesion to microwells coated with peptides and proteins; format: cell-based, human
Experimental: (§1) (FIG. 10A, […]) The receptor side: α6 integrin and E-cadherin are involved in the adhesion of metastatic CRC cells to the liver. HepG2 and NCI-H630 cells were incubated on 10-μm frozen sections of grossly normal human liver and adhered cells were fixed, stained and counted under a light microscope at 20× magnification. Photomicrographs representative of cell numbers (120 minutes' incubation) and morphology (5 days' incubation) are shown. The dotted line indicates a micrometastasis-like structure integrated into the hepatic tissue; arrowheads point to cell aggregates. Tissues were counterstained with hematoxylin (FIG. 10A). […] The same cells were evaluated for their capacity to adhere to the […] […] After 48 hours, cells on the lower side of the transwell membranes were fixed, stained and counted under a light microscope at 5× magnification. […] (SEQ ID NO: 14) or control peptide; after 30 minutes, adhered cells were fixed, stained and counted under a light microscope at 5× magnification. For NCI-H630, adhesion was evaluated on liver sections from 27 patients (Patient Ids: P29, P30, P33, P34, P35, P36, P56-76) and results are shown as the ratio of attached cells in the presence of […] […] In FIG. 10A-D, FIG. 10F and FIG. 10G, differences in the experimental points were evaluated for their statistical significance by the use of ANOVA followed by Bonferroni's post-test. […]

NCI-H630 cells = experiment: Liver adhesion assay on frozen sections of grossly normal human liver; format: cell-based; settings: liver sections from 27 patients, versus control peptide, 30 minutes
Experimental: (§2) (FIG. 10A, […]) The receptor side: α6 integrin and E-cadherin are involved in the adhesion of metastatic CRC cells to the liver. HepG2 and NCI-H630 cells were incubated on 10-μm frozen sections of grossly normal human liver and adhered cells were fixed, stained and counted under a light microscope at 20× magnification. Photomicrographs representative of cell numbers (120 minutes' incubation) and morphology (5 days' incubation) are shown. The dotted line indicates a micrometastasis-like structure integrated into the hepatic tissue; arrowheads point to cell aggregates. Tissues were counterstained with hematoxylin (FIG. 10A). NCI-H630 cells silenced for ITGA6, CDH1 or both of these mRNAs were challenged in the same assay (FIG. 10B). Results are shown as mean±standard deviation for each experimental point in 3 independent experiments. (FIG. 10C) The ligand side: the […] (SEQ ID NO: 14) motif and angiopoietin-like 6 interact specifically with cells expressing the receptor proteins. Phage binding was investigated on NCI-H630 cells in which ITGA6, CDH1 or both mRNAs were silenced. Results, normalized to fd-tet binding, are shown as mean±standard deviation of 4 independent experiments. The same cells were evaluated for their capacity to adhere to the […] […] After 48 hours, cells on the lower side of the transwell membranes were fixed, stained and counted under a light microscope at 5× magnification. […] (SEQ ID NO: 14) or control peptide; after 30 minutes, adhered cells were fixed, stained and counted under a light microscope at 5× magnification. For NCI-H630, adhesion was evaluated on liver sections from 27 patients (Patient Ids: P29, P30, P33, P34, P35, P36, P56-76) and results are shown as the ratio of attached cells in the presence of […] […] In FIG. 10A-D, FIG. 10F and FIG. 10G, differences in the experimental points were evaluated for their statistical significance by the use of ANOVA followed by Bonferroni's post-test. […] Fourteen days after surgery, animals were sacrificed and livers were explanted and photographed for the quantification of external tumor areas. […]

primary CRC cell lines = experiment: as above; format: cell-based
Experimental: as §2

[2] = tested on: U293 cells stably overexpressing E-cadherin, α6 integrin or both; experiment: Cell proliferation assay (crystal violet); format: cell-based, human; settings: 100 μM peptide, complete (10% FCS) medium; FIG. 12
Experimental: U293 cells stably overexpressing E-cadherin, α6 integrin or both were grown in complete (10% FCS) culture medium in the presence of either the control or […] (SEQ ID NO: 14) peptide. At 24 hour time points, cells were fixed and stained with crystal violet; their numbers were estimated by spectrophotometric evaluation. Results are shown as mean±standard deviation for each experimental point in 2 independent experiments.
To test the effects of peptides on cell proliferation, we seeded 2×10^4 cells per well in a 24-well plate, in the presence of either control or […] (SEQ ID NO: 14) peptide (100 μM). At the indicated time points, cells were fixed in glutaraldehyde, stained in crystal violet, and solubilized in 10% acetic acid. Cell growth was evaluated by absorbance at 590 nm in a microplate reader (Perkin Elmerm Waltham, Mass.). A calibration curve was set up with known numbers of cells and a linear correlation between absorbance and cell counts was established up to 5×10^5 cells/well.

LS-174T cells = experiment: Hepatic colonization model, intrahepatic injection of CRC cells with soluble peptide; format: in vivo, CD-1 nude mice; settings: LS-174T intrahepatic, 14 days
Experimental: as §1

[3] = tested on: HCCM-1544 tumor and CRC cell lines (HCT-116m, SW-48, DLD-1, LS-174T); experiment: Liver homing model, intrasplenic implantation of CRC cells with soluble peptide; format: in vivo, CD-1 nude mice; settings: 100 μM peptide co-injected, significant in all models except DLD-1
Excerpt: To obtain an in vivo model of metastatic CRC, we implanted the patient-derived HCCM-1544 tumor as well as different CRC cell lines (HCT-116m, SW-48, DLD-1 and LS-174T) intrasplenically into CD-1 nude mice (2×10^6/mouse). To evaluate the effect of […] (SEQ ID NO: 14) on liver metastasis, we injected cells either in medium alone (vehicle) or in the presence of the soluble peptide ([…]) (SEQ ID NO: 14). At the indicated time points, mice were euthanized and their livers and spleens were explanted. Livers were photographed for the quantification of external metastatic areas. Representative pictures of whole livers from 2 mice/group are shown for macroscopic evaluation of tumor morphology; the indicated p-values are referred to statistical analysis performed either with Fisher's exact test (in black) or t-test (in red). Spleen (primary tumor) and liver (metastasis) samples were OCT-frozen, cut in 10-μm sections and immunostained with anti-α6 integrin and anti-E-cadherin antibodies, followed by imaging with a confocal microscope. […]
Six-week female CD1-nude mice were purchased from Charles River (Lecco, Italy). […] Mice were strictly monitored until completely awake, and oral ampicillin was administered for 5 days following the surgery. […] External metastatic areas were quantified using ImageJ software.

[4] = tested on: U293 cells stably transduced with α6 integrin, E-cadherin or both; experiment: Transwell migration toward an angiopoietin-like 6 gradient; format: cell-based, human; settings: 48 hours
Experimental: as §1

| integrin subunit content of peptide- and phage-targeted protein fractions (β4 integrin subunit) | Molecule | cell adherence to microwells coated with peptide ([1]; NCI-H630 with ITGA6 or both mRNAs silenced, most pronounced with both downmodulated) | cell adhesion to human liver sections (NCI-H630 cells) | adhesiveness on hepatic tissues (primary CRC cell lines; HCT-116m, HT-29, SW-48 and DLD-1) | adhesion to normal hepatic tissues (primary CRC cell lines; non-metastatic HCT-116 cells) | cell proliferation [2] | liver tumors (external tumor areas) (LS-174T cells; 100 μM peptide co-injected) | overall morphology and levels of receptor complex in the tumors (LS-174T cells) | homing of CRC cells to the liver (liver metastases) [3] | cell binding to microwells coated with recombinant protein ([1]; NCI-H630 cells in which both mRNAs were silenced) | cell migration toward ligand gradient ([4]; U293 cells expressing both α6 integrin and E-cadherin) | cell migration toward ligand gradient ([4]; U293 cells with either α6 integrin or E-cadherin) |
| --- | --- | --- | --- | --- | --- | --- | --- | --- | --- | --- | --- | --- |
| substantial enrichment in the β4 subunit | CGIYRLRSC (Peptide inhibiting the E-cadherin/alpha6 integrin complex) [Targeting synthetic LRS-motif peptide, from New England Peptides] | impaired adherence | significant decrease in cell adhesion | significantly inhibited | not influenced | no effects | significant reduction of liver tumors | unchanged | diminished homing of CRC cells to the liver | – | – | – |
| – | angiopoietin-like 6: secreted factor; recombinant protein from Alexis Biochemicals, or produced by transduced U293 cells (protein) RAGAPRCTYTFVLPPQKFTGAVCWSGPASTRATPEAANASELAALRMRVGRHEELLRELQRLAAADGAVAGEVRALRKESRGLSARLGQLRAQLQHEAGPGAGPGADLGAEPAAALALLGERVLNASAEAQRAAARFHQLDVKFRELAQLVTQQSSLIARLERLCPGGAGGQQQVLPPPPLVPVVPVRLVGSTSDTSRMLDPAPEPQRDQTQRQQEPMASPMPAGHPAVPTKPVGPWQDCAEARQAGHEQSGVYELRVGRHVVSVWCEQQLEGGGWTVIQRRQDGSVNFFTTWQHYKAGFGRPDGEYWLGLEPVYQLTSRGDHELLVLLEDWGGRGARAHYDGFSLEPESDHYRLRLGQYHGDAGDSLSWHNDKPFSTVDRDRDSYSGNCALYQRGGWWYHACAHSNLNGVWHHGGHYRSRYQDGVYWAEFRGGAYSLRKAAMLIRPLKL | – | – | – | – | – | – | – | – | significantly lower binding | significantly stimulated | not influenced |
